Key:
[1] = target: T1, 5-LO (Homo sapiens, UniProt P09917); assay: Biochemical assay 5-LO; details: Hu
T1 sequence (P09917 1-674): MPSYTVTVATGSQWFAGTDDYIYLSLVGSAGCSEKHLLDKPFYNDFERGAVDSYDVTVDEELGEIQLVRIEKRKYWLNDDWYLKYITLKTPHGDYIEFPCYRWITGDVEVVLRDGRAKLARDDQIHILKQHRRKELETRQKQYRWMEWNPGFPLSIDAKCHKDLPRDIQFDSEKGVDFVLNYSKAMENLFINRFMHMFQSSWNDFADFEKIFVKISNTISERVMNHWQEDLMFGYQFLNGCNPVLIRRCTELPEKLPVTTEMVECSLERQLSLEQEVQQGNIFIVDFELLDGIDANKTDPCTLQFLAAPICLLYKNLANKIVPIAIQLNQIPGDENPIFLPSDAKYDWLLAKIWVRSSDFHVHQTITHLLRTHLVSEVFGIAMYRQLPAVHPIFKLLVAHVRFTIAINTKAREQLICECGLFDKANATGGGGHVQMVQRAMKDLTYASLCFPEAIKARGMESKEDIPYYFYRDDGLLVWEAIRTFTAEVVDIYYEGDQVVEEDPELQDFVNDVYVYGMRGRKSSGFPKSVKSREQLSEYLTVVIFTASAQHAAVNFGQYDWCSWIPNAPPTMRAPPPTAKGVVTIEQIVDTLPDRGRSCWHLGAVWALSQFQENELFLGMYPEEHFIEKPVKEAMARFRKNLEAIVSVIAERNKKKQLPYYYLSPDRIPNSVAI

[2] = system: PDE4; assay: Biochemical assay PDE4; details: PDE4, Hu
[3] = target: PDE5 (Homo sapiens, UniProt O76074); assay: Biochemical assay PDE5; details: PDE5, Hu
[4] = target: Adrenergic, NE Transporter (Homo sapiens, UniProt P23975); assay: Biochemical assay Adrenergic, NE Transporter; assay type: binding; details: Hu; for Ki: value in parentheses
Chain of Adrenergic, NE Transporter (P23975 whole entry): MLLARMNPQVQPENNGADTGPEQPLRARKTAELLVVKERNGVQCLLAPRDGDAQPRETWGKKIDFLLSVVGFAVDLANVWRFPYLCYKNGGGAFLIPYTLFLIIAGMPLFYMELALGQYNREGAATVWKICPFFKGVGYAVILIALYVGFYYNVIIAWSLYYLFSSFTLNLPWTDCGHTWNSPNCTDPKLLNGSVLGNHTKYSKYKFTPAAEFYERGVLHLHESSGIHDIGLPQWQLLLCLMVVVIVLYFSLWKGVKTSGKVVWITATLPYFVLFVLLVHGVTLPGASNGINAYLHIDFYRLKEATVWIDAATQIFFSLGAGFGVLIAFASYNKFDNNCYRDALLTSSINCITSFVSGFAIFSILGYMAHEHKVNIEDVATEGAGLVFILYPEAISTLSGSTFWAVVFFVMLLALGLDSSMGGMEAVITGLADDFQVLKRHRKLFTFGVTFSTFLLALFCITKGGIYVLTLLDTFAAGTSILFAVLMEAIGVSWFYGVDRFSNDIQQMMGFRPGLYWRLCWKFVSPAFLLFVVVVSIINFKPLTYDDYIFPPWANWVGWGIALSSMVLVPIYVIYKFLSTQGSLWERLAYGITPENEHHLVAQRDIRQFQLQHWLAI

[5] = target: LTB4 (Homo sapiens, UniProt Q15722); assay: Biochemical assay LTB4; assay type: binding; details: LTB4, Hu
Chain of LTB4 (Q15722 whole entry): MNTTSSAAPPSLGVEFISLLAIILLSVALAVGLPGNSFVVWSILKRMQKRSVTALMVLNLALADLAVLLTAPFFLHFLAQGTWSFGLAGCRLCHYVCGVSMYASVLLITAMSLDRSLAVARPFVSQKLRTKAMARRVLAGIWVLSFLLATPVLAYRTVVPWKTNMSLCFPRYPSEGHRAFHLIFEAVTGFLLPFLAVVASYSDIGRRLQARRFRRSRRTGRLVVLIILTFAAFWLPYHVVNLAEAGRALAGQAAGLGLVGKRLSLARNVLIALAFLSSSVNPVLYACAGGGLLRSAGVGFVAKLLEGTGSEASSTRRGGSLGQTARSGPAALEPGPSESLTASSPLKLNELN

[6] = target: Opiate δ (Homo sapiens, UniProt P41143); assay: Biochemical assay Opiate δ; assay type: binding; details: Hu; for Ki: value in parentheses
Chain of Opiate δ (P41143 whole entry): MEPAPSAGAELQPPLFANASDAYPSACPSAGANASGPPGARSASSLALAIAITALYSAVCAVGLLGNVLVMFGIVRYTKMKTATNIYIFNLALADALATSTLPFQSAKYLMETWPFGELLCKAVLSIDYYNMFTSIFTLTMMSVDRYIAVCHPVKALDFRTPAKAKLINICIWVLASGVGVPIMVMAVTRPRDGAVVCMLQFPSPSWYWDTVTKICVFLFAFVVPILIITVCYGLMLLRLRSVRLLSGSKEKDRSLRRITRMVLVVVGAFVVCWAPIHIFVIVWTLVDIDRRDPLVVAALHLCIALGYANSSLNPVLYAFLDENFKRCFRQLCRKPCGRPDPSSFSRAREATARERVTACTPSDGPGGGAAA

[7] = target: T2, Thromboxane A2 (Homo sapiens, UniProt P21731); assay: Biochemical assay Thromboxane A2; assay type: binding; details: Thromboxane A2, Hu; for Ki: value in parentheses
T2 sequence (P21731 1-343): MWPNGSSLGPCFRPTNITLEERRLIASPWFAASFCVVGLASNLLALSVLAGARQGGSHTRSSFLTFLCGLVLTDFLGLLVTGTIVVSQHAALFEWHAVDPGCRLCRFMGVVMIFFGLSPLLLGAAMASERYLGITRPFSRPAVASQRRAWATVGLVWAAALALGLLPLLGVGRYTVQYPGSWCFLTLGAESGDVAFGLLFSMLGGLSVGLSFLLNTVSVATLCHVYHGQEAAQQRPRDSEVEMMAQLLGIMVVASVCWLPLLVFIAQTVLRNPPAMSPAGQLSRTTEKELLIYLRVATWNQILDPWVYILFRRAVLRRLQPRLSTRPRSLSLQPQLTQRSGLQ

[8] = system: rat bladder; assay: Ovalbumin-sensitized rat model of inflammation-induced bladder hyperactivity (cystometry); assay type: in vivo, Sprague-Dawley rats; details: for NVC/minute: 60 minutes prior
Protocol: Sprague-Dawley rats (n=50; […]) were utilized for this study. The animals were divided into 5 groups (n=10). The first group served as the control and the second group was sensitized with ovalbumin (OA). The third, fourth, and fifth groups were also sensitized as described but subjected to oral gavaging with Compound 1 prior to acute ovalbumin challenge.
Sensitization of the animals was accomplished with an intraperitoneal injection of a mixture of 1 mg OA and 100 mg aluminum hydroxide suspended in 1 mL of saline. Fourteen days later, these sensitized rats were anaesthetized with a subcutaneous injection of urethane (1.2 g/kg) for intravesical OA (10 mg/mL) administration and evaluation of bladder hyperactivity. The animals in group 1 received saline (control), group 2 animals received about 2 mL of OA (10 mg/mL OA in sterile saline) and animal groups 3-5 animals received oral 1 (10, 30, 50 mg/kg in gum acacia suspension) 60 minutes prior to acute OA challenge (2 mL of 10 mg/mL OA).
All animals were subjected to evaluation of bladder hyperactivity. Briefly, a 1 cm incision was made along the centerline of the lower ventral abdomen. The bladder was exteriorized, and catheterized by means of a polyethylene tube (PE 50, Clay Adams) inserted into the bladder dome and sutured in place using a 2-0 braided silk suture. The bladder was returned to the abdomen, with the catheter line escaping through the incision. The catheter was then connected to a pressure transducer (UFI, Morro Bay, Calif.) and in turn, connected to an infusion pump (Harvard Apparatus, MA). During the continuous filling bladder cystometry, the pressure was recorded with the transducer using the program LabVIEW (National Instruments, TX).
For cystometry (See, Chuang Y C, Chancellor M B, Seki S, Yoshimura N, Tyagi P, Huang L, Lavelle J P, De Groat W C and Fraser M O: Intravesical protamine sulfate and potassium chloride as a model for bladder hyperactivity. Urology (2003) 61:664-70), the bladder was first infused with warm 0.9% saline (37° C.) at 40 μL/min (2.4 mL/hr) and at least 20 minutes of stable voiding cycles were recorded during infusion. This process was followed by intravesical infusion of OA (10 mg/mL) and bladder contractions were recorded. Frequency of contractions (voids), inter-contractile interval (ICI), and non-voiding contractions (NVC) were calculated from these recordings.

[9] = system: IBS/ulcerative colitis; assay: Example 9: patient with IBS/ulcerative colitis symptoms; assay type: in vivo, human; details: 750 mg tablets three times per day for at least two months; present-tense example
Protocol: A person complains of symptoms associated with IBS/ulcerative colitis, including diarrhea with discharge of mucus and blood, cramping abdominal pain, and inflammation and edema of the mucous membrane with patches of ulceration. The patient is treated with tablets containing 750 mg of compound (1), three times per day, for at least two months. […] Similar positive results are observed for other patients complaining of the same or similar symptoms attributable to IBS or ulcerative colitis.

[10] = Form present in human plasma; assay type: in vivo; details: metabolite of compound 1, human plasma

IC50 [1] [nM] | IC50 [2] [nM] | IC50 [3] [nM] | IC50 [4] [nM] | Ki [4] [nM] | IC50 [5] [nM] | Ki ([5]; value in parentheses) [nM] | IC50 [6] [nM] | Ki [6] [nM] | IC50 [7] [nM] | Ki [7] [nM] | form in human plasma [10] | SMILES | NVC/minute ([8]; Group 3: OA (10 mg/mL) infusion after oral 10 mg/kg, n = 10, NS compared to Group 2 (OA alone 0.9400 ± 0.2473)) [NVC/minute] | NVC/minute ([8]; Group 4: OA (10 mg/mL) infusion after oral 30 mg/kg, n = 9, P < 0.05 compared to Group 2) [NVC/minute] | NVC/minute ([8]; Group 5: OA (10 mg/mL) infusion after oral 50 mg/kg, n = 9, P < 0.05 compared to Group 2) [NVC/minute] | voiding frequency ([8]; control (group 1) versus treatment groups (2-5)) | OA-induced changes in NVC and ICI ([8]; pre-treatment, oral 10, 30, 50 mg/kg) | protection against OA-induced changes (increase in NVC, decrease in ICI) ([8]; pre-treatment, preferably at 30 and 50 mg/kg) | symptoms of IBS/ulcerative colitis reported by patient [9]
1110 | 639 | 12700 | 3500 | 3470 | 9020 | 2290 | 1040 | 365 | 3370 | 2200 | – | CCCc1c(SCCCOc2ccc(C(C)=O)c(OCCCC(=O)O)c2CCC)ccc(C(C)=O)c1O [Compound 1, 4-[6-acetyl-3-[3-(4-acetyl-3-hydroxy-2-propylphenylthio)propoxy]-2-propylphenoxy]butyric acid] | 0.4700 ± 0.1221 | 0.3444 ± 0.06894 | 0.1778 ± 0.08296 | No significant differences | dose-dependent inhibition | significant protection | positive effects
1610 | 303 | 8470 | 2050 | 2030 | – | – | 3030 | 1070 | 3890 | 2540 | dominant form | CCCc1c(SCCCOc2ccc(C(C)O)c(OCCCC(=O)O)c2CCC)ccc(C(C)=O)c1O (stereo not shown) [Compound 2] | – | – | – | – | – | – | –

Source: US8026282B2, “Phenoxyalkylcarboxylic acid derivatives in the treatment of irritable bowel syndrome” (Medicinova, Inc., priority 2004, dated 2011)
